Source: US20090258069A1, “Delivery of LFA-1 antagonists to the gastrointestinal system” (priority 2008, published 2009)

Tested on: tester strains
Test: In vitro Ames bacterial reverse mutation assay
Assay type: cell-based
Conditions: presence or absence of microsomal (S9) enzymes
Source text: Therefore, Compound 12 was judged to be not mutagenic.

CS(=O)(=O)c1cccc(C[C@H](NC(=O)c2c(Cl)cc3c(c2Cl)CCN(C(=O)c2ccc4ccoc4c2)C3)C(=O)O)c1 [Compound 12]
Ames assay, revertants per plate: not mutagenic
